Assay results published in US9346754B2, “Method of treating advanced non-alcoholic steatohepatitis” (priority 2014, dated 2016).
“Also recorded” adds a separate entry of the source.

Assays:
Assay type in all cases: in vivo, C57BL/6 mice
[1] = system: STAM Model of Advanced Non-Alcoholic Steatohepatitis; assay: Sirius red staining, percentage of fibrosis area in STAM mice; conditions: for Sirius red-positive area (fibrosis area): mean ± SD
Description: For HE staining, sections were cut from paraffin blocks of liver tissue prefixed in Bouin's solution and stained with Lillie-Mayer's Hematoxylin (Muto Pure Chemicals, Japan) and eosin solution (Wako Pure Chemical Industries). NAFLD Activity score (NAS) was calculated according to the criteria of Kleiner (Kleiner D E. et al., Hepatology, 2005; 41:1313). To visualize collagen deposition, Bouin's fixed liver sections were stained using picro-Sirius red solution (Waldeck, Germany). For quantitative analysis of fibrosis area, inflammation area, and semi-quantification of α-SMA, bright field images of Sirius red-stained, F4/80- and α-SMA-immunostained sections were captured around the central vein using a digital camera (DFC280: Leica Microsystems, Germany) at 200-fold magnification, and the positive areas in 5 fields/section were measured using ImageJ software (National Institute of Health, USA). […] P values<0.05 were considered statistically significant. […] Results were expressed as mean±SD.

[2] = system: STAM Model of Advanced Non-Alcoholic Steatohepatitis; assay: F4/80 immunostaining, percentage of inflammation area in STAM mice; conditions: for F4/80-positive area (inflammation area): mean ± SD
Description: For immunohistochemistry, sections were cut from frozen liver tissues embedded in Tissue-Tek O.C.T. compound and fixed in acetone. Endogenous peroxidase activity was blocked using 0.03% H2O2 for 5 minutes, followed by incubation with Block Ace (Dainippon Sumitomo Pharma, Japan) for 10 minutes. The sections were incubated with a 200-fold dilution of anti-α-SMA (Epitomics, USA) or anti-F4/80 antibody (BMA Biomedicals, Switzerland) 1 hour at room temperature. […] For quantitative analysis of fibrosis area, inflammation area, and semi-quantification of α-SMA, bright field images of Sirius red-stained, F4/80- and α-SMA-immunostained sections were captured around the central vein using a digital camera (DFC280: Leica Microsystems, Germany) at 200-fold magnification, and the positive areas in 5 fields/section were measured using ImageJ software (National Institute of Health, USA). […] P values<0.05 were considered statistically significant. […] Results were expressed as mean±SD.

[3] = system: TIMP-1 mRNA; assay: Liver gene expression by quantitative RT-PCR: TIMP-1; conditions: 10 mg/kg oral once daily, 8 to 12 weeks of age (MN-001-low; Telmisartan)
Description: (§1) Total RNA was extracted from liver samples using RNAiso (Takara Bio, Japan) according to the manufacturer's instructions. One μg of RNA was reverse-transcribed using a reaction mixture containing 4.4 mM MgCl2 (F. Hoffmann-La Roche, Switzerland), 40 U RNase inhibitor (Toyobo, Japan), 0.5 mM dNTP (Promega, USA), 6.28 μM random hexamer (Promega), 5× first strand buffer (Promega), 10 mM dithiothreitol (Invitrogen, USA) and 200 U MMLV-RT (Invitrogen) in a final volume of 20 μL. The reaction was carried out for 1 hour at 37° C., followed by 5 minutes at 99° C. Real-time PCR was performed using real-time PCR DICE and SYBR premix Taq (Takara Bio). To calculate the relative mRNA expression level, the expression of each gene was normalized to that of reference gene 36B4 (gene symbol: Rp1p0). Information of PCR-primer sets are described in Table 1. [table] […] P values<0.05 were considered statistically significant. […] Results were expressed as mean±SD.

[4] = system: Collagen Type 1 mRNA; assay: Liver gene expression by quantitative RT-PCR: Collagen Type 1
Description: as §1

[5] = system: Alpha-SMA mRNA; assay: Liver gene expression by quantitative RT-PCR: Alpha-SMA
Description: as §1

[6] = Liver weight and liver-to-body weight ratio in STAM mice
Source text: Mice in all groups will be sacrificed for the following assays at 12 weeks of age. Individual liver weight will be measured, and liver-to-body weight ratio will be calculated. Liver hydroxyproline will be quantified by a hydrolysis method. Histopathological analyses of liver sections (according to routine methods) HE staining (to estimate NAFLD Activity score), Sirius-red staining (to estimate the percentage of fibrosis area). F4/80 immunostaining (to estimate the percentage of inflammation area), Alpha-SMA immunostaining (to estimate the percentage of a-SMA positive area) are performed. Gene expression assays using total RNA from the liver Real-time RT-PCR analysis will be performed for TIMP-1, Collagen Type 1, α-SMA, 5-lipoxygenase, FLAP and LTC4 synthase are also performed. Statistical tests will be performed using Bonferroni Multiple Comparison Test. P values<0.05 will be considered statistically significant. […] P values<0.05 were considered statistically significant. […] Results were expressed as mean±SD.

[7] = 10 mg/kg oral once daily, 8 to 12 weeks of age (MN-001-low; Telmisartan)
[8] = 10 mg/kg oral once daily, 8 to 12 weeks of age (MN-001-low n=10; Telmisartan n=9)
[9] = Telmisartan 10 mg/kg oral once daily, 8 to 12 weeks of age
[10] = 100 mg/kg oral once daily, 8 to 12 weeks of age (MN-001-high)
[11] = 30 mg/kg oral once daily, 8 to 12 weeks of age (MN-001-middle, n=10)
[12] = 100 mg/kg oral once daily, 8 to 12 weeks of age (MN-001-high, n=10)
[13] = any doses of MN-001 (10, 30, 100 mg/kg oral once daily, 8 to 12 weeks of age)
[14] = any doses of MN-001 (10, 30, 100 mg/kg oral once daily)

SMILES | Fibrosis area compared with the Vehicle group [1, 7] | Sirius red-positive area (fibrosis area) [1, 8] [%] | Inflammation area compared with the Vehicle group [2, 9] | F4/80-positive area (inflammation area) [2, 8] [%] | TIMP-1 mRNA expression levels compared with the Vehicle group [3] | Collagen Type 1 mRNA expression levels compared with the Vehicle group [4, 9] | Alpha-SMA mRNA expression levels compared with the Vehicle group [5, 9] | Mean liver weight compared with the Vehicle group [6, 9] | Mean liver-to-body weight ratio compared with the Vehicle group [6, 9] | Fibrosis area compared with the Vehicle group ([1]; 30 mg/kg oral once daily, 8 to 12 weeks of age (MN-001-middle)) | Fibrosis area compared with the Vehicle group [1, 10] | Sirius red-positive area (fibrosis area) [1, 11] [%] | Sirius red-positive area (fibrosis area) [1, 12] [%] | Inflammation area compared with the Vehicle group [2, 13] | F4/80-positive area (inflammation area) [2, 11] [%] | F4/80-positive area (inflammation area) [2, 12] [%] | Collagen Type 1 mRNA expression levels compared with the Vehicle group [4, 10] | α-SMA mRNA expression levels compared with the Vehicle group [5, 13] | Mean liver weight compared with the Vehicle group [6, 14] | Mean liver-to-body weight ratio compared with the Vehicle group [6, 14]
CCCc1nc2c(C)cc(-c3nc4ccccc4n3C)cc2n1Cc1ccc(-c2ccccc2C(=O)O)cc1 [Telmisartan, reference compound] | significantly decreased | 0.49 ± 0.19 | significantly decreased; also recorded: tended to decrease | 3.79 ± 1.60 | significantly down-regulated | significantly down-regulated | significantly down-regulated | significantly decreased; also recorded: significant decrease | significant decrease |  |  |  |  |  |  |  |  |  |  | 
CCCc1c(SCCCOc2ccc(C(C)=O)c(OCCCC(=O)O)c2CCC)ccc(C(C)=O)c1O [MN-001] | significantly decreased | 0.75 ± 0.40 |  | 6.47 ± 2.67 | significantly down-regulated |  |  |  |  | tended to decrease | significantly decreased | 0.95 ± 0.37 | 0.65 ± 0.28 | no significant differences | 6.36 ± 1.59 | 5.14 ± 0.89 | tended to decrease | no significant differences | no significant differences | no significant differences
